Consider three molecules from publication PMC10892818, “An Antiherpesviral Host-Directed Strategy Based on CDK7 Covalently Binding Drugs: Target-Selective, Picomolar-Dose, Cross-Virus Reactivity” (Pharmaceutics, 2024).

Like-named read-outs stand apart in the source and are kept apart here.

The subject of series [1] is HCMV UL97-M460I. Details: method as in PMID 31940472; key: R-high, high-level drug resistance; R-int, intermediate-level drug resistance; R-low, low-level drug resistance; S, drug sensitivity. As to conditions: cited from earlier work.
Series [2] relates to HCMV UL97-F342S. Details: method as in PMID 31940472; key: R-high, high-level drug resistance; R-int, intermediate-level drug resistance; R-low, low-level drug resistance; S, drug sensitivity. As to conditions: (for F342Y); cited from earlier work.
The subject of series [3] is HCMV UL97-C603W. Details: method as in PMID 31940472; key: R-high, high-level drug resistance; R-int, intermediate-level drug resistance; R-low, low-level drug resistance; S, drug sensitivity. As to conditions: cited from earlier work.
In series [4] the test system is HCMV UL97-H411Y. Details: method as in PMID 31940472; key: R-high, high-level drug resistance; R-int, intermediate-level drug resistance; R-low, low-level drug resistance; S, drug sensitivity. The conditions noted are these: cited from earlier work.
Series [5] concerns HCMV UL97-H520Q. Also noted: method as in PMID 31940472; key: R-high, high-level drug resistance; R-int, intermediate-level drug resistance; R-low, low-level drug resistance; S, drug sensitivity. The conditions noted are these: cited from earlier work.
Series [6] deals with HCMV UL97-T409M. Details: method as in PMID 31940472; key: R-high, high-level drug resistance; R-int, intermediate-level drug resistance; R-low, low-level drug resistance; S, drug sensitivity. The conditions noted are these: cited from earlier work.
Series [7] relates to HCMV UL97-C592G. Also noted: method as in PMID 31940472; key: R-high, high-level drug resistance; R-int, intermediate-level drug resistance; R-low, low-level drug resistance; S, drug sensitivity. The conditions noted are these: cited from earlier work.
Series [8] has as its system HCMV UL97-C480F. Also noted: method as in PMID 31940472; key: R-high, high-level drug resistance; R-int, intermediate-level drug resistance; R-low, low-level drug resistance; S, drug sensitivity. As to conditions: cited from earlier work.
The subject of series [9] is HCMV UL97-H520Q. Description: HCMV reporter-based antiviral assay, drug-resistant mutant. The series is classed as cell-based, human cytomegalovirus. The conditions noted are these: Human betaherpesvirus 5, read-out: Measured EC50 ref. drugs UL97-H520Q. On the procedure: (§1) For the infection experiments, stocks of the following recombinant, reporter protein-expressing viruses (GFP or YFP (i.e., green or yellow fluorescent protein, respectively)) were propagated (in permissive cells), determined in their infectious titers performing the respective reporter assays, stored by aliquots at −80 °C, and used for the assessment of antiviral drug activities: human cytomegalovirus HCMV AD169-GFP (HFFs); murine cytomegalovirus MCMV C3X-GFP (MEFs); guinea pig cytomegalovirus GPCMV v403-GFP (GPEFs); human herpesvirus type 6A HHV-6A U1102-GFP (J-Jhan); herpes simplex virus type 1 HSV-1 166v VP22-GFP (HFFs); varicella zoster virus VZV Oka-GFP (HFFs); Epstein-Barr virus EBV Akata-GFP (Akata-BX1-GFP carrier cells; kindly provided by Lindsey Hutt-Fletcher and Rona Scott, Dept. Microbiol. Immunol., LSUHSC Univ., Shreveport, LA, USA); and Kaposi’s sarcoma-associated herpesvirus KSHV rKSHV.219-GFP/RFP (in iSLK.219 carrier cells).
(§2) For HCMV AD169-GFP infection, the replication assay was based on a seeding of 225,000 HFFs or 13,500 HFFs in 12 well or 96 well plates, respectively, which were then inoculated with HCMV AD169-GFP [55] at an MOI of 0.25 GFP-FU/mL/7 d for a 90 min period of inoculum–cell adsorption, followed by a medium refreshment including the immediate addition of antiviral compounds. At 7 d p.i., the infected HFFs were either directly fixed with 10% formalin for 20 min at 4 °C (when used for infection in the 96 well format) or lysed and transferred to 96 well plates (when used for infection in the 12 well format) so that the reporter of viral replication could be quantified by GFP fluorometry using a Perkin Elmer Victor X4 Multimode Plate Reader (Perkin Elmer, Waltham, MA, USA).
(§3) Due to the fact that the HCMV-encoded protein kinase pUL97 represents a functional and structural ortholog of the host CDKs (vCDK/pUL97), the viral mutants of ORF-UL97 were assessed for sensitivity against CDK7 inhibitors.

Series [10] relates to HCMV UL97-C592G. The description is as above. The series is classed as cell-based, human cytomegalovirus. As to conditions: Human betaherpesvirus 5, read-out: Measured EC50 ref. drugs UL97-C592G. As to the method:
as §1, §2, §3

The test system of series [11] is HCMV UL97-M460I. The description is as above. As to conditions: Human betaherpesvirus 5, AD169, read-out: Measured EC50 ref. drugs UL97-M460I. The class given is cell-based, human cytomegalovirus. As to the method:
as §1, §2, §3

The test system of series [12] is HCMV UL97-H469V. Described as above. As to conditions: Human betaherpesvirus 5, read-out: Measured EC50 ref. drugs UL97-H469V. The class given is cell-based, human cytomegalovirus. On the procedure: as §1, §2, §3
Series [13] has as its system HCMV UL97-L397R. The series is described as above. The conditions noted are these: Human betaherpesvirus 5, read-out: Measured EC50 ref. drugs UL97-L397R. The class given is cell-based, human cytomegalovirus. On the procedure:
as §1, §2, §3

Series [14] relates to HCMV UL97-C480F. The description is as above. The class given is cell-based, human cytomegalovirus. The conditions noted are these: Human betaherpesvirus 5, read-out: Measured EC50 ref. drugs UL97-C480F. As to the method: as §1, §2, §3
For series [15], the system named is HCMV UL97-T409M. Described as above. The series is classed as cell-based, human cytomegalovirus. The conditions noted are these: Human betaherpesvirus 5, read-out: Measured EC50 ref. drugs UL97-T409M. As to the method: as §1, §2, §3
The subject of series [16] is HCMV UL97-H411Y. The series is described as above. The series is classed as cell-based, human cytomegalovirus. As to conditions: Human betaherpesvirus 5, read-out: Measured EC50 ref. drugs UL97-H411Y. As to the method: as §1, §2, §3
Series [17] deals with HCMV UL97-F342S. Described as above. The series is classed as cell-based, human cytomegalovirus. The conditions noted are these: Human betaherpesvirus 5, read-out: Measured EC50 ref. drugs UL97-F342S. As to the method:
as §1, §2, §3

Series [18] has as its system HCMV UL97-C603W. The series is described as above. The series is classed as cell-based, human cytomegalovirus. The conditions noted are these: Human betaherpesvirus 5, read-out: Measured EC50 ref. drugs UL97-C603W. On the procedure:
as §1, §2, §3

Series [19] in a line: Neutral Red uptake assay (NRA), uninfected HFFs. The class given is cell-based. The conditions noted are these: human, read-out: CC50 (VZV-GFP system). As to the method: The cytotoxic level of the compounds was determined by the use of an established quantitation of cell viability (i.e., Neutral Red uptake assay) performed after 3–7 d of compound incubation on uninfected cells (according to the respective duration of the antiviral reporter-based replication assay performed in parallel) as described earlier in [44].

Series [20] in a line: Neutral Red uptake assay (NRA), iSLK.219 cells. The class given is cell-based. As to conditions: human, read-out: CC50 (KSHV-GFP/RFP system). As to the method:
(§4) The virus recombinants VZV Oka-GFP and rKSHV.219-GFP/RFP were used for the infection of HFFs (VZV) or were continuously passaged in iSLK.219 carrier cells (KSHV), respectively, and cell viability was determined by NRA performed with uninfected HFFs or uninduced iSLK.219 cells, respectively. (A,B) Schematic depiction of the assay systems performed in a 96 well plate format. […] For the VZV-GFP system, virus stock VZV Oka-GFP was applied as a cell-bound infectious inoculum. After a 90 min period of inoculum adsorption to the cell surfaces, antiviral compounds were added to the culture media at serial dilutions (DMSO served as a solvent control for drug treatment of infected cells, while mock-infected cells served as a negative control). For the KSHV-GFP/RFP system, iSLK.219 cell lytic replication of KSHV (RFP reporter signal) was induced by the addition of 0.05 or 0.5 µg/mL doxycycline (dox) to the culture media. Cultivated dox-induced iSLK.219 cells were treated with antiviral compounds added at serial dilutions (DMSO served as a positive infection solvent control, while dox-untreated mock cells served as a negative control). HFFs or iSLK.219 cells were harvested at 4 d p.i. or 1 d after treatment, respectively, fixed by a 10 min incubation with 10% formalin, washed with PBS, and used for quantitation of the GFP or RFP reporter signal by PicoMD counting (ImageXpress® Pico device, Molecular Devices LLC, San Jose, CA, USA), with data evaluation using CellReporterXpress® software (version 2.9.3.1183, Molecular Devices LLC) as described earlier in [63]. (C) The antiviral activity of the reference drugs was determined with the VZV-GFP system in the 96 well format. EC50 values refer to measurements in quadruplicate, and the mean values ± SD of two experimental replicates are given. (D) The antiviral activity of the reference drugs was determined with the KSHV-GFP/RFP system in the 96 well format. EC50 values refer to measurements in triplicate, and the mean values ± SD are given for each of the two depicted experimental replicates.

The test system of series [21] is VZV Oka-GFP. As to the kind of experiment: microbe, parasite or virus in culture. The class given is cell-based, varicella zoster virus. The conditions noted are these: for EC50: Human alphaherpesvirus 3, 96 h.
Text: (§5) The virus recombinants VZV Oka-GFP and rKSHV.219-GFP/RFP were used for the infection of HFFs (virus stock VZV Oka-GFP applied as a cell-bound inoculum as described before) or were continuously passaged in iSLK.219 carrier cells, respectively (Figure 1). The conditions of the GFP/RFP-based assays were adapted to both the 96 well (Figure 1A,B) and 12 well formats, and details including the assessment of antiviral reference drugs are given (Figure 1C,D).
as §4

Series [22] has as its system rKSHV.219-GFP/RFP. As to the kind of experiment: KSHV-GFP/RFP reporter assay in iSLK.219 cells. The class given is cell-based, Kaposi’s sarcoma-associated herpesvirus.
Text: as §5, §4
For orientation: In a reporter assay the amount or activity of a reporter protein is the signal.

Turning to `CC(C)Nc1nc2cc(Cl)c(Cl)cc2n1[C@H]1O[C@@H](CO)[C@H](O)[C@@H]1O` [MBV, maribavir], the “Reported phenotype UL97-M460I” value in series [1] is reported as “R-low”. Besides, the “Reported phenotype UL97-F342S” value in series [2] was “R-int”. Further, the “Reported phenotype UL97-C603W” value in series [3] is reported as “R-int”. For the same molecule, the “Reported phenotype UL97-H411Y” value in series [4] is on record as “R-high”. Also, the “Reported phenotype UL97-H520Q” value in series [5] is “S”. Further, the “Reported phenotype UL97-T409M” value in series [6] is recorded as “R-high”. Moreover, the “Reported phenotype UL97-C592G” value in [7] was “S”. Further, the “Reported phenotype UL97-C480F” value in series [8] is recorded as “R-high”. For the same molecule, the EC50 in [9] is 40 nM; in [10], 770 nM; in series [11] it was 10 nM; in series [12] it was 620 nM; in series [13], 63900 nM; in series [14], above 30000 nM. Further, the EC50 in series [15] was above 30000 nM; in [16], 21000 nM; in series [17] it was 20300 nM; in series [18], 1530 nM.

With `Nc1nc2c(ncn2COCCO)c(=O)[nH]1` [aciclovir], the CC50 in [19] was above 100000 nM.

As to `CCCCCCCCCCCCCCCCOCCCOP(=O)(O)CO[C@H](CO)Cn1ccc(N)nc1=O` [brincidofovir], the CC50 is above 10000 nM in series [19], 23800 ± 2900 nM in series [20] (marked 0.05 μg/mL dox) and 28200 nM in [20] (marked 0.5 μg/mL dox). Further, in [21] (96 well format), the “SI (VZV-GFP system)” value is above 143. Also, the EC50 in series [21] (read-out: VZV EC50 (first experimental replicate)) came to 70 ± 40 nM; in series [21] (read-out: VZV EC50 (second experimental replicate)) it was 60 ± 30 nM; in series [22] (Human gammaherpesvirus 8, read-out: KSHV EC50, iSLK.219, 96 well, induced with 0.5 μg/mL dox), 700 nM. For the same molecule, the “SI (KSHV-GFP/RFP system)” value stood at 126 in series [22] (0.05 μg/mL dox) and 43 in series [22] (0.5 μg/mL dox).
